Results on 19 molecules are retold here after patent publication US20250136577A1, “HETEROCYCLIC DERIVATIVES AS MALT1 INHIBITORS” (C4X Discovery Limited, priority 2022, published 2025).

For one test, the target named is FL hMALT1 enzyme (Homo sapiens (Human), UniProt Q9UDY8). The test can be described thus: MALT1 Protease Assay 2 (Assay 2), higher sensitivity, cleavage of fluorogenic tetrapeptide substrate. It counts as biochemical. The following applies: FL hMALT1 1-10 nM, Ac-LVSR-AMC 100 μM, 0.7 M sodium citrate, 30 min preincubation, 60 min read. As to the method: MALT1 Protease Assay 2 (Assay 2)
(§1) MALT1 protease activity was assessed in vitro by measuring the cleavage of a fluorogenic tetrapeptide substrate.
For a higher sensitivity assay, commercially available FL hMALT1 enzyme (Abcam, 1-10 nM) was incubated with substrate (Ac-LVSR-AMC, 100 μM) in reaction buffer comprising 50 mM HEPES (pH7.0), 25 mM KCl, 0.1% (v/v) CHAPS, 1 mM TCEP and 0.7 M sodium citrate.
(§2) Test compounds dissolved in DMSO were dispensed into assay plates (384-well, black, shallow ProxiPlates). 7 μl enzyme solution was added and incubated at room temperature for 30 minutes to allow compound binding to occur. 2 μl substrate solution was then added and the fluorescence (excitation 360 nm, emission 460 nm) read every 15 minutes using a suitable plate reader. Final assay DMSO concentration was 1%. Linearity over 60 minutes was confirmed, and assay signal was calculated by subtracting raw counts at time 0 from those at 60 minutes. % inhibition was calculated for each well, using no enzyme for 100% inhibition controls and no compound for 0% inhibition controls. IC50 values were calculated using GraphPad Prism using a 4-parameter non-linear regression curve fit.

In test [1] the test system is IL-2 release from stimulated Jurkat cells. The test can be described thus: Human IL-2 Release Phenotypic Assay (Assay 3). It counts as cell-based. The following applies: Jurkat cells (clone E6-1), 200 ng/ml PMA + 300 ng/ml ionomycin, IL-2 in supernatant by ELISA. As to the method: Human IL-2 Release Phenotypic Assay (Assay 3)
This assay measured the inhibition by MALT1 inhibitors of the IL-2 release from stimulated Jurkat cells, a human immortalized T lymphocyte cell line. IL-2 production from Jurkat cells is regulated by activation of NFκB signalling, which is in turn regulated by MALT1 protease activity.
Jurkat cells (clone E6-1, ATCC) were cultured in RPMI1640 supplemented with 10% (v/v) FBS and 1% (v/v) penicillin/streptomycin (100× liquid stocks). Cells were seeded in 96-well white tissue culture-treated plates (Perkin Elmer) at 50 000 cells/well and incubated overnight at 37° C., 5% CO2. Test compounds in DMSO at half-log dilutions were added to the cells and incubated for 30 mins. Final DMSO concentration was 0.5%. Cells were then stimulated with 200 ng/ml PMA+300 ng/ml ionomycin and incubated for 48 hours. IL-2 present in the supernatant was then measured by ELISA according to the kit instructions (ELISA MAX Deluxe Set Human IL-2, BioLegend). % inhibition was calculated for each well, using 30 μM of the commercially available MALT1 inhibitor, MLT-748, for 100% inhibition controls and no compound for 0% inhibition controls. IC50 values were calculated using GraphPad Prism using 4-parameter non-linear regression curve fit.
A general note: In an ELISA, binding on a coated surface is turned into a signal by an enzyme label.

In test [2] the target is MALT1-GS-Ub (6-His-hMALT-1 residues 339-715 fused to ubiquitin) (Homo sapiens (Human), UniProt Q9UDY8). The test can be described thus: MALT1 Protease Assay 1 (Assay 1), cleavage of fluorogenic tetrapeptide substrate. The following applies: MALT1-GS-Ub 300-600 nM, Ac-LVSR-AMC 100 μM, 30 min preincubation, 60 min read. Type of test: biochemical. As to the method:
MALT1 Protease Assay 1 (Assay 1)
as §1
A protein (MALT1-GS-Ub) comprising 6-His-hMALT-1 (residues 339-715), fused to ubiquitin with an 8× GGS linker, was expressed in E. coli, and purified using chitin resin to remove contaminants followed by affinity chromatography purification and size-exclusion chromatography, according to standard protocols.
Briefly, MALT1-GS-Ub (300-600 nM) was incubated with substrate (Ac-LVSR-AMC, 100 μM) in reaction buffer comprising 50 mM HEPES (pH7.0), 25 mM KCl, 0.1% (v/v) CHAPS and 1 mM TCEP.
as §2

Chain of MALT1-GS-Ub (6-His-hMALT-1 residues 339-715 fused to ubiquitin) (Q9UDY8 other isoform, or with tags, fused parts or gaps): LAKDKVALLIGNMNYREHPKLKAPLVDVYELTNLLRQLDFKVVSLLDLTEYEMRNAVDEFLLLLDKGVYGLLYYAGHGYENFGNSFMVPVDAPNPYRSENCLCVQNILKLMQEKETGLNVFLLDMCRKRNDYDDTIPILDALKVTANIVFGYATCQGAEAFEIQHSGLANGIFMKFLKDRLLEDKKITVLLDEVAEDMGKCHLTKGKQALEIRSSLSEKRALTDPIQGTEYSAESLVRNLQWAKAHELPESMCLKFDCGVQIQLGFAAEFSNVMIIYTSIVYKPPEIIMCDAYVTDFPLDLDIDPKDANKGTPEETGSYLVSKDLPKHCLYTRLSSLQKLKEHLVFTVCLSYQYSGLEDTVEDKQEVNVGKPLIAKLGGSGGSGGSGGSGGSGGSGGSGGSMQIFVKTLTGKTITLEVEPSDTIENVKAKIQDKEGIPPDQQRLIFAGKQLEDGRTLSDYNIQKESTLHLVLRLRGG
Chain of FL hMALT1 enzyme (Q9UDY8 whole entry): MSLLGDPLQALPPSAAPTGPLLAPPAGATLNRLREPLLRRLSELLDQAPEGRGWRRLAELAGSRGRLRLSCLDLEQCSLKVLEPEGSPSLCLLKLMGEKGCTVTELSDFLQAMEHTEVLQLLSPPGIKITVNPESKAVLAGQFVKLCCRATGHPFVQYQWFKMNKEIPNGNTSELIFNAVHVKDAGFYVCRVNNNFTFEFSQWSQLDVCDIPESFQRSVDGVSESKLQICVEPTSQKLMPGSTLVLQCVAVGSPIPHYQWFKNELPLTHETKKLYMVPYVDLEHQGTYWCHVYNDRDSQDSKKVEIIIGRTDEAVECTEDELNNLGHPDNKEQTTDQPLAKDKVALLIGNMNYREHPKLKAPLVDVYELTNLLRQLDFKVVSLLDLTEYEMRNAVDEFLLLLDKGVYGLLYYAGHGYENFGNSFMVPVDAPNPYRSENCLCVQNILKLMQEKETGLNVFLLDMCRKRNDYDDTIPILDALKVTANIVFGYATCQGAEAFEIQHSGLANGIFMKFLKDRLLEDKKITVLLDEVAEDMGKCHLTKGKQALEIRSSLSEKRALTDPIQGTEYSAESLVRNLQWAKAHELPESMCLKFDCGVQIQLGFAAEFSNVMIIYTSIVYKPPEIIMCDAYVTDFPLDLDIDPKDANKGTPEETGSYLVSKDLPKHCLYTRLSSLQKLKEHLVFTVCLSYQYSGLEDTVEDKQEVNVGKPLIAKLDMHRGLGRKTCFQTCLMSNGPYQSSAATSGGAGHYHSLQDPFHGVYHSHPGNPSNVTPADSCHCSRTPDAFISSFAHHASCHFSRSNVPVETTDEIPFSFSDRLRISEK

Broadly, the IC50 is the concentration that gives 50% inhibition. `Cc1ncc2c(c1Br)OC(C(F)(F)F)CN2C(=O)Nc1cnc(-n2nccn2)c(Cl)c1` (single isomer, unassigned) [Example 43, 8-Bromo-N-(5-chloro-6-(2H-1,2,3-triazol-2-yl)pyridin-3-yl)-7-methyl-2-(trifluoromethyl)-2,3-dihydro-4H-pyrido[4,3-b][1,4]oxazine-4-carboxamide]: the IC50 against FL hMALT1 enzyme is 60 nM; in test [1] (Homo sapiens, Jurkat, 48 h), 1400 nM.
Consider `CCC1CN(C(=O)Nc2cnc(-n3nccn3)c(Cl)c2)c2cncc(Br)c2O1` (single isomer, unassigned) [Example 46, 8-Bromo-N-(5-chloro-6-(2H-1,2,3-triazol-2-yl)pyridin-3-yl)-2-ethyl-2,3-dihydro-4H-pyrido[4,3-b][1,4]oxazine-4-carboxamide], for which the figures for the IC50 (on FL hMALT1 enzyme; in test [1] (48 hours)) were 30 nM and 740 nM, respectively.
In the same order, the values of `CCC1CN(C(=O)Nc2cnc(-n3nccn3)c(Cl)c2)c2cncc(Br)c2O1` (single isomer, unassigned) [Example 47, 8-Bromo-N-(5-chloro-6-(2H-1,2,3-triazol-2-yl)pyridin-3-yl)-2-ethyl-2,3-dihydro-4H-pyrido[4,3-b][1,4]oxazine-4-carboxamide] are 130 nM and over 10000 nM.
In the case of `CC(C)C1CN(C(=O)Nc2cnc(-n3nccn3)c(Cl)c2)c2cncc(Br)c2O1` (single isomer, unassigned) [Example 48, 8-Bromo-N-(5-chloro-6-(2H-1,2,3-triazol-2-yl)pyridin-3-yl)-2-isopropyl-2,3-dihydro-4H-pyrido[4,3-b][1,4]oxazine-4-carboxamide], the values for the IC50 (against FL hMALT1 enzyme; in test [1] (48 hours)) were 80 nM and over 10000 nM, respectively.
In the same order, the values of `CC(C)C1CN(C(=O)Nc2cnc(-n3nccn3)c(Cl)c2)c2cncc(Br)c2O1` (single isomer, unassigned) [Example 49, 8-Bromo-N-(5-chloro-6-(2H-1,2,3-triazol-2-yl)pyridin-3-yl)-2-isopropyl-2,3-dihydro-4H-pyrido[4,3-b][1,4]oxazine-4-carboxamide] are 120 nM and 4460 nM.
As for `Cc1ncc2c(c1C#N)OC(C(F)(F)F)CN2C(=O)Nc1cnc(-n2nccn2)c(Cl)c1` (single isomer, unassigned) [Example 53, N-(5-Chloro-6-(2H-1,2,3-triazol-2-yl)pyridin-3-yl)-8-cyano-7-methyl-2-(trifluoromethyl)-2,3-dihydro-4H-pyrido[4,3-b][1,4]oxazine-4-carboxamide], the IC50 against FL hMALT1 enzyme amounted to 60 nM; in test [1] (Homo sapiens, Jurkat, 48 h), 390 nM.
Consider `CN1CCN(C(=O)Nc2cnc(-n3nccn3)c(Cl)c2)c2cccc(Br)c21` [Example 16, 5-Bromo-N-(5-chloro-6-(2H-1,2,3-triazol-2-yl)pyridin-3-yl)-4-methyl-3,4-dihydroquinoxaline-1 (2H)-carboxamide], for which the IC50 worked out at 900 nM on FL hMALT1 enzyme and 2500 nM in test [2].
In the same order, the values of `O=C(Nc1cnc(-n2nccn2)c(Cl)c1)N1CCCc2c(Br)cncc21` [Example 17, 5-Bromo-N-(5-chloro-6-(2H-1,2,3-triazol-2-yl)pyridin-3-yl)-3,4-dihydro-1,7-naphthyridine-1 (2H)-carboxamide] are 1500 nM and 500 nM.
In the same order, the values of `C#CC1CN(C(=O)Nc2cnc(-n3nccn3)c(Cl)c2)c2cccc(Br)c2O1` (centres unmarked) [Example 20, 8-Bromo-N-(5-chloro-6-(2H-1,2,3-triazol-2-yl)pyridin-3-yl)-2-ethynyl-2,3-dihydro-4H-benzo[b][1,4]oxazine-4-carboxamide] are 590 nM and 3300 nM.
In the same order, the values of `O=C(Nc1cnc(-n2nccn2)c(Cl)c1)N1CCCc2c(C3CC3)cncc21` [Example 22, N-(5-Chloro-6-(2H-1,2,3-triazol-2-yl)pyridin-3-yl)-5-cyclopropyl-3,4-dihydro-1,7-naphthyridine-1 (2H)-carboxamide] are 4700 nM and 4000 nM.
Take `CC1(C)CN(C(=O)Nc2cnc(-n3nccn3)c(Cl)c2)c2cncc(C3CC3)c2O1` [Example 24, N-(5-Chloro-6-(2H-1,2,3-triazol-2-yl)pyridin-3-yl)-8-cyclopropyl-2,2-dimethyl-2,3-dihydro-4H-pyrido[4,3-b][1,4]oxazine-4-carboxamide]: the concentration for half-maximal inhibition (IC50) was 340 nM on FL hMALT1 enzyme and 2500 nM in test [2].
In the same order, the values of `O=C(Nc1cnc(-n2nccn2)c(Cl)c1)N1C[C@@H]2CCCN2c2c(Br)cncc21` [Example 25, (S)-1-Bromo-N-(5-chloro-6-(2H-1,2,3-triazol-2-yl)pyridin-3-yl)-6a,7,8,9-tetrahydropyrido[3,4-e] pyrrolo[1,2-a]pyrazine-5 (6H)-carboxamide] are 230 nM and 1060 nM.
In the same order, the values of `O=C(Nc1cnc(-n2nccn2)c(Cl)c1)N1CC2(CCOC2)Oc2c(Br)cncc21` (centres unmarked) [Example 27, 8′—Bromo-N-(5-chloro-6-(2H-1,2,3-triazol-2-yl)pyridin-3-yl)-4,5-dihydro-2H-spiro [furan-3,2′-pyrido[4,3-b][1,4]oxazine]-4′ (3′H)-carboxamide] are 900 nM and 5000 nM.
In the same order, the values of `O=C(Nc1cnc(-n2nccn2)c(Cl)c1)N1CC2CCCCN2c2c(Br)cncc21` (centres unmarked) [Example 28, 1-Bromo-N-(5-chloro-6-(2H-1,2,3-triazol-2-yl)pyridin-3-yl)-6,6a,7,8,9,10-hexahydro-5H-dipyrido[1,2-a: 3′,4′-e] pyrazine-5-carboxamide] are 1100 nM and 7300 nM.
As for `CN1CCN(C(=O)Nc2cnc(-n3nccn3)c(Cl)c2)c2cncc(Br)c21` [Example 29, 8-Bromo-N-(5-chloro-6-(2H-1,2,3-triazol-2-yl)pyridin-3-yl)-1-methyl-2,3-dihydropyrido[3,4-b]pyrazine-4 (1H)-carboxamide], the half-maximal inhibitory concentration (IC50) was over 3000 nM on FL hMALT1 enzyme and 3800 nM in test [2].
In the same order, the values of `CN1c2c(Br)cncc2N(C(=O)Nc2cnc(-n3nccn3)c(Cl)c2)CC1(C)C` [Example 31, 8-Bromo-N-(5-chloro-6-(2H-1,2,3-triazol-2-yl)pyridin-3-yl)-1,2,2-trimethyl-2,3-dihydropyrido[3,4-b]pyrazine-4 (1H)-carboxamide] are 260 nM and 3000 nM.
Turning to `O=C(Nc1cnc(-n2nccn2)c(Cl)c1)N1CCN(C2CCOCC2)c2c(Br)cncc21` [Example 33, 8-Bromo-N-(5-chloro-6-(2H-1,2,3-triazol-2-yl)pyridin-3-yl)-1-(tetrahydro-2H-pyran-4-yl)-2,3-dihydropyrido[3,4-b]pyrazine-4 (1H)-carboxamide], the IC50 on FL hMALT1 enzyme was 1500 nM; in test [2] it was 7600 nM.
In the same order, the values of `O=C(Nc1cnc(-n2nccn2)c(Cl)c1)N1CC(C(F)(F)F)Nc2c(Br)cncc21` (centres unmarked) [Example 37, 8-Bromo-N-(5-chloro-6-(2H-1,2,3-triazol-2-yl)pyridin-3-yl)-2-(trifluoromethyl)-2,3-dihydropyrido[3,4-b]pyrazine-4 (1H)-carboxamide] are 540 nM and 3900 nM.
Consider `O=C(Nc1cnc(-n2nccn2)c(Cl)c1)N1CC(C(F)(F)F)Oc2c(Br)cncc21` (centres unmarked) [Example 38, 8-Bromo-N-(5-chloro-6-(2H-1,2,3-triazol-2-yl)pyridin-3-yl)-2-(trifluoromethyl)-2,3-dihydro-4H-pyrido[4,3-b][1,4]oxazine-4-carboxamide], for which the half-maximal inhibitory concentration (IC50) was found to be 120 nM against FL hMALT1 enzyme and 730 nM in test [2].
